Reference: patent publication US11306071B2, “Heterocyclic compounds as adenosine antagonists” (Nuvation Bio Inc., priority 2019, dated 2022)

What was measured:
[1] = target: HEK-293 cells expressing human recombinant adenosine A1 receptor (Homo sapiens (Human), UniProt P30542); test: cAMP assay (Assay 2), A1 receptor; assay type: cell-based
Procedure: (§1) The functional activity of compounds was tested using Assay 2, below, to detect the presence of cAMP. Assay 1 is an alternative assay for this purpose. Activation of G-protein coupled receptors (such as A2A) results in activation of adenylyl cyclase which converts ATP into cAMP which is used as a downstream signaling molecule. Therefore, molecules which act as GPCR (or specifically A2A receptor) antagonists cause a decrease in intracellular cAMP concentration.
(§2) Assay 2 (Table B2): This assay used HEK-293 cells expressing human recombinant adenosine A2A receptor (or, alternatively, A1 receptor) that were grown prior to the test in media without antibiotic. 100 nL of test articles at 100x of final concentration were transferred to assay plate by Echo. Cells were washed twice with 5 mL of PBS and 10 μL of cells were mixed with 5 mL PBS. After aspirating the PBS and adding 1.5 mL versine, cells were incubated at 37° C. for 2-5 min. After centrifugation, 4 mL of medium was added and adjusted cell density to 5,000 cells/well with Stimulation Buffer. 10 μL of cells were aliquoted to the assay plate, centrifuged at 1000 rpm for 1 minute, and incubated for 60 minutes at room temperature. 5 μL 4× Eu-cAMP tracer solution and 5 μL 4× Ulight™-anti-cAMP solution were added to assay plate, followed by centrifugation and 60-minute incubation at room temperature. Plates were read on EnVision.

[2] = target: adenosine A2a (human) membrane (Homo sapiens (Human), UniProt P29274); test: A2A adenosine receptor radioligand binding assay ([3H] CGS-21680); conditions: radioligand [3H] CGS-21680 6 nM
Chain of adenosine A2a (human) membrane (P29274 whole entry): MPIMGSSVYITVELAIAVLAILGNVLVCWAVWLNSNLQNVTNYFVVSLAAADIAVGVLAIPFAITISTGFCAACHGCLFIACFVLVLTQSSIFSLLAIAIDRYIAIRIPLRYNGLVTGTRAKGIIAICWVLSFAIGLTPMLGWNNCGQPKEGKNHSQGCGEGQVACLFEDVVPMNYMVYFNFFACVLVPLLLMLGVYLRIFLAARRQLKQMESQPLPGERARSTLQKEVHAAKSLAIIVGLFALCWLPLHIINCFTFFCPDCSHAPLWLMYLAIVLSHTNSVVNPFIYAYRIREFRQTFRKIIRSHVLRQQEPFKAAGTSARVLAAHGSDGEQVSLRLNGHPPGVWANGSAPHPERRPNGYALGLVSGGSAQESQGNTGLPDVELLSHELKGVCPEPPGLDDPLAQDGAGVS
Procedure: A second A2A adenosine receptor radioligand binding assay protocol was used. The protocol used adenosine A2a (human) membrane (PerkinElmer RBHA2AM400UA) at a concentration of 5 μg/well/100 μl and the radioligand [3H] CGS-21680 (Cat No. PerkinElmer-NET1021250UC) at a final concentration of 6 nM. Testing compounds were diluted with DMSO to make 8-point 4-fold serial dilution, starting at 0.2 mM. CGS-15943 was the reference compound. 1 μl of compounds/high control/low control was transferred to the assay plate according to a plate map, followed by 100 μl of membrane stocks and 100 μl of radioligand, in assay buffer (50 mM Tris-HCl, 10 mM MgCl2, 1 mM EDTA, pH 7.4). The plate was sealed and incubated at RT for 2 hours. Unifilter-96 GF/C filter plates (Perkin Elmer Cat #6005174) were soaked with 50 μl of 0.3% PEI per well for at least 0.5 hour at room temperature. When the binding assays were completed, the reaction mixtures were filtered through GF/C plates using Perkin Elmer Filtermate Harvester, and each plate washed 4 times with cold wash buffer (50 mM Tris-HCl, 154 mM NaCl, pH 7.4). The filter plates were dried for 1 hour at 50 degrees. After drying, the bottom of the filter plate wells was sealed, 50 μl of Perkin Elmer Microscint 20 cocktail was added, and the top of the filter plate was sealed. ^3H trapped on the filter was counted using Perkin Elmer MicroBeta2 Reader. The data were analyzed with GraphPad Prism 5 to obtain binding IC50 values. The “Inhibition [% Control]” was calculated using the equation: % Inh=(1-Background subtracted Assay value/Background subtracted HC value)*100, where HC is high control.

[3] = target: HEK-293 cells expressing human recombinant adenosine A2A receptor (Homo sapiens (Human), UniProt P29274); test: cAMP assay (Assay 2), A2A receptor; assay type: cell-based
Chain of HEK-293 cells expressing human recombinant adenosine A2A receptor (P29274 whole entry): as above
Procedure: as §1, §2

[4] = target: adenosine A1 (human) membrane (Homo sapiens (Human), UniProt P30542); test: A1 adenosine receptor radioligand binding assay ([3H] DPCPX); conditions: 200 nM compound; radioligand [3H] DPCPX 1 nM
Chain of adenosine A1 (human) membrane (P30542 whole entry): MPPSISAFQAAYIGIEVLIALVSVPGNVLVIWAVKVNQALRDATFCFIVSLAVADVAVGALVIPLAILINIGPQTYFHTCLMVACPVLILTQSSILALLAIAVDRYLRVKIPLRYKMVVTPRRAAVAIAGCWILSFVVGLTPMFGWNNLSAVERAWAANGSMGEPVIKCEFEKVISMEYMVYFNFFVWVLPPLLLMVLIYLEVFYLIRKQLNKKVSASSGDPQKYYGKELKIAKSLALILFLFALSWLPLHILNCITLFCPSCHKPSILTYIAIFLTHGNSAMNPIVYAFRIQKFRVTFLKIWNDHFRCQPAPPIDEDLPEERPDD
Procedure: A second A1 adenosine receptor radioligand binding assay protocol was used. The protocol used adenosine A1 (human) membrane (PerkinElmer ES-010-M400UA) at a concentration of 2.5 μg/well/100 μl and the radioligand [3H] DPCPX (Cat No. PerkinElmer-NET974250UC) at a final concentration of 1 nM. Testing compounds were tested at a final concentration of 200 nM. CGS-15943, the reference compound, was tested in an 8-point 4-fold serial dilution, starting at a top concentration of 1 μM. 1 μl of compounds/high control/low control was transferred to the assay plate according to a plate map, followed by 100 μl of membrane stocks and 100 μl of radioligand, in assay buffer (25 mM HEPES, 5 mM MgCl2, 1 mM CaCl2, 100 mM NaCl, pH 7.4). The plate was sealed and incubated at RT for 1 hour. Unifilter-96 GF/C filter plates (Perkin Elmer Cat #6005174) were soaked with 50 μl of 0.3% PEI per well for at least 0.5 hour at room temperature. When the binding assays were completed, the reaction mixtures were filtered through GF/C plates using Perkin Elmer Filtermate Harvester, and each plate washed 4 times with cold wash buffer (25 mM HEPES, 5 mM MgCl2, 1 mM CaCl2, 100 mM NaCl, pH 7.4). The filter plates were dried for 1 hour at 50 degrees. After drying, the bottom of the filter plate wells was sealed, 50 μl of Perkin Elmer Microscint 20 cocktail was added, and the top of the filter plate was sealed. ^3H trapped on the filter was counted using Perkin Elmer MicroBeta2 Reader. The data were analyzed with GraphPad Prism 5 to obtain binding IC50 values for the reference compound. The “Inhibition [% Control]” was calculated using the equation: % Inh=(1-Background subtracted Assay value/Background subtracted HC value)*100, where HC is high control.

Chain of HEK-293 cells expressing human recombinant adenosine A1 receptor (P30542 whole entry): as above

SMILES | IC50 [1] [µM] | IC50 [2] [µM] | IC50 [3] [µM] | inhibition at 0.2 µM [4] [%]
CCN(CC)CCNC(=O)c1nc(-c2ccc3ncccc3c2)c(-c2ccccc2)nc1N [compound 107, 3-amino-N-(2-(diethylamino)ethyl)-5-phenyl-6-(quinolin-6-yl)pyrazine-2-carboxamide] |  |  | 0.191 | 49
CCN(CC)CCNc1nc(-c2ccc3ncccc3c2)c(-c2ccccc2)nc1N [compound 1, N2-(2-(diethylamino)ethyl)-5-phenyl-6-(quinolin-6-yl)pyrazine-2,3-diamine] |  |  | 0.262 | 
Nc1nc(-c2ccccc2)c(-c2ccc3ncccc3c2)nc1C(=O)NCCC1CCOCC1 [compound 89, 3-amino-5-phenyl-6-(quinolin-6-yl)-N-(2-(tetrahydro-2H-pyran-4-yl)ethyl)pyrazine-2-carboxamide] |  | 0.016 | 0.058 | 
N#Cc1cccc(-c2nc(N)cnc2-c2cc(Cl)c3[nH]ncc3c2)c1 [Compound No. 2-7, 3-(6-amino-3-(7-chloro-1H-indazol-5-yl)pyrazin-2-yl)benzonitrile] |  |  | 0.13 | 81
N#Cc1cc(-c2nc(N)cnc2-c2cc(Cl)c3ncccc3c2)ccc1F [Compound No. 2-13, 5-(6-amino-3-(8-chloroquinolin-6-yl)pyrazin-2-yl)-2-fluorobenzonitrile] |  |  | 0.527 | 54
C[C@@H](NC(=O)c1nc(-c2ccc3ncccc3c2)c(-c2ccccc2)nc1N)c1ncccn1 [Compound No. 125, (R)-3-amino-5-phenyl-N-(1-(pyrimidin-2-yl)ethyl)-6-(quinolin-6-yl)pyrazine-2-carboxamide] |  | 0.0012 | 0.027 | 
C[C@@H](NC(=O)c1nc(-c2ccc3ncccc3c2)c(-c2cccc(C#N)c2)nc1N)c1cccc(C#N)n1 [Compound No. 117, (R)-3-amino-5-(3-cyanophenyl)-N-(1-(6-cyanopyridin-2-yl)ethyl)-6-(quinolin-6-yl)pyrazine-2-carboxamide] |  | 0.269 |  | 56
CC(NC(=O)c1nc(-c2ccc3ncccc3c2)c(-c2ccn(C)n2)nc1N)c1cccc(C#N)n1 (stereo not drawn) [Compound No. 127, 3-amino-N-(1-(6-cyanopyridin-2-yl)ethyl)-5-(1-methyl-1H-pyrazol-3-yl)-6-(quinolin-6-yl)pyrazine-2-carboxamide] |  | 0.0039 |  | 84
C[C@H](NC(=O)c1nc(-c2ccc3ncccc3c2)c(-c2ccccc2)nc1N)c1ncccn1 [Compound No. 126, (S)-3-amino-5-phenyl-N-(1-(pyrimidin-2-yl)ethyl)-6-(quinolin-6-yl)pyrazine-2-carboxamide] |  | 0.0018 | 0.11 | 41
Cc1c(C#N)cccc1-c1nc(N)cnc1-c1cc(Cl)c2ncccc2c1 [2-2, 3-(6-amino-3-(8-chloroquinolin-6-yl)pyrazin-2-yl)-2-methylbenzonitrile] |  |  | 0.327 | 30

The remaining lines, values ahead:

IC50 [1] [µM] | IC50 [2] [µM] | IC50 [3] [µM] | inhibition at 0.2 µM [4] [%] | SMILES
0.117 | 0.0009 | 0.076 | 68 | C[C@@H](NC(=O)c1nc(-c2cc(Cl)c3[nH]ncc3c2)c(-c2ccc(F)cc2)nc1N)c1ccccn1 [Compound No. 104, (R)-3-amino-6-(7-chloro-1H-indazol-5-yl)-5-(4-fluorophenyl)-N-(1-(pyridin-2-yl)ethyl)pyrazine-2-carboxamide]
 |  | 1.42 | 19 | CC(Oc1nc(-c2cc(Cl)c3ncccc3c2)c(-c2ccc(F)cc2)nc1N)c1ccccn1 (stereo not drawn) [Compound No. 103, 5-(8-chloroquinolin-6-yl)-6-(4-fluorophenyl)-3-(1-(pyridin-2-yl)ethoxy)pyrazin-2-amine]
0.403 | 0.0031 | 0.053 | 61 | CC(NC(=O)c1nc(-c2ccc3ncccc3c2)c(-c2ccccc2)nc1N)c1ccccn1 (stereo not drawn) [compound 73, 3-amino-5-phenyl-N-(1-(pyridin-2-yl)ethyl)-6-(quinolin-6-yl)pyrazine-2-carboxamide]
 |  | 0.238 | 66 | Nc1nc(-c2ccc(F)cc2)c(-c2cc(Cl)c3ncccc3c2)nc1C(=O)NCCC1CCOCC1 [Compound No. 101, 3-amino-6-(8-chloroquinolin-6-yl)-5-(4-fluorophenyl)-N-(2-(tetrahydro-2H-pyran-4-yl)ethyl)pyrazine-2-carboxamide]
 | < 0.0006 | 0.033 | 96 | C[C@H](NC(=O)c1nc(-c2cc(Cl)c3ncccc3c2)c(-c2ccccc2)nc1N)c1cccc(C#N)n1 [Compound No. 122, (S)-3-amino-6-(8-chloroquinolin-6-yl)-N-(1-(6-cyanopyridin-2-yl)ethyl)-5-phenylpyrazine-2-carboxamide]
 |  | 0.165 | 34 | C[C@@H](NC(=O)c1nc(-c2cc(Cl)c3ncccc3c2)c(-c2ccc(F)cc2)nc1N)c1ccccn1 [compound 106, (R)-3-amino-6-(8-chloroquinolin-6-yl)-5-(4-fluorophenyl)-N-(1-(pyridin-2-yl)ethyl)pyrazine-2-carboxamide]
 | 0.0016 |  | 77 | C[C@@H](NC(=O)c1nc(-c2cc(Cl)c3[nH]ncc3c2)c(-c2ccn(C)n2)nc1N)c1ccccn1 [Compound No. 112, (R)-3-amino-6-(7-chloro-1H-indazol-5-yl)-5-(1-methyl-1H-pyrazol-3-yl)-N-(1-(pyridin-2-yl)ethyl)pyrazine-2-carboxamide]
 | 0.0039 |  | 92 | CC(NC(=O)c1nc(-c2ccc3ncccc3c2)c(-c2ccccc2)nc1N)c1cccc(C#N)n1 (stereo not drawn) [Compound No. 111, 3-amino-N-(1-(6-cyanopyridin-2-yl)ethyl)-5-phenyl-6-(quinolin-6-yl)pyrazine-2-carboxamide]
 |  | 0.072 |  | CC(NC(=O)c1nc(-c2cc(Cl)c3ncccc3c2)c(-c2ccn(C)n2)nc1N)c1cccc(C#N)n1 (stereo not drawn) [Compound No. 99, 3-amino-6-(8-chloroquinolin-6-yl)-N-(1-(6-cyanopyridin-2-yl)ethyl)-5-(1-methyl-1H-pyrazol-3-yl)pyrazine-2-carboxamide]
 | 0.0029 | 0.075 | 38 | C[C@@H](NC(=O)c1nc(-c2ccc3ncccc3c2)c(-c2ccn(C)n2)nc1N)c1ccccn1 [Compound No. 110, (R)-3-amino-5-(1-methyl-1H-pyrazol-3-yl)-N-(1-(pyridin-2-yl)ethyl)-6-(quinolin-6-yl)pyrazine-2-carboxamide]
